Laboratory results published in patent publication US5039691A, “5-(1-(imidazol)methyl)-3,3-disubstituted-2(3H)furanone derivatives” (Marion Merrell Dow Inc., priority 1990, dated 1991).
Structures can show the parent of a compound that is named as a salt. Blank lines part the entries; values can stand above or below the compound they belong to.

What was measured:
[1] = tested on: isolated guinea pig ileum; conditions: Kolokouris et al., Ann. Pharm. Fr. 1985; cited from earlier work
[2] = molecular target: T1, muscarinic cholinergic receptors on bladder detrusor muscle (Cavia porcellus, UniProt H0W1Z3); test: Antimuscarinic test: antagonism of carbachol contraction of isolated bladder (Muscarinic Antagonist Activity, Bladder); set-up: species or system guinea pig; conditions: bladder detrusor strips, carbachol agonist, 35° C.
T1 construct: The peritoneal cavity is opened and the bladder is held lightly at its apex; from tissue; host or cells: guinea pig urinary bladder, detrusor strips without mucosa
Procedure: ANTIMUSCARINIC TEST PROTOCOL
PREPARATION OF BLADDER FOR TESTING
Male albino guinea pigs are killed by decapitation or cervical dislocation. The peritoneal cavity is opened and the bladder is held lightly at its apex, stretched gently, and fat is lifted with fine forceps and dissected away in situ with blunt-tipped scissors as close to the surface of the bladder as possible. The tissue is placed in a latex-bottomed Petri dish that contains a modified Krebs solution (133 mM NaCl, 1.3 mM […], 16.3 mM NaHCO3, 4.7 mM KCl, 0.6 mM MgSO4.7H2 O, 2.5 mM CaCl2.2H2 O, 7.7 mM dextrose) and cut above the neck. The bladder is collapsed into a flat pouch, which is opened by two lateral incisions and unfolded to give a rectangular sheet of tissue approximately 2 cm long and 1 cm wide. The sheet is gently stretched and pinned to the bottom of the Petri dish. Blunt separation of the mucosa, which is visible as a looser superficial pink layer, is started at one end by carefully inserting the blades of micro dissecting scissors between the mucosa and muscle layers and using gentle spreading of the blades, together with steady traction with forceps to tease the two layers apart. Clean removal of the mucosa is usually possible without any fraying or tearing of the underlying muscle. The removal of the mucosa is considered essential for improving oxygen supply to the preparation and for providing better access on both sides of the thin muscle sheet for administered drugs (Ambache and Zar, J. Physiol. 210:671, 1970). The sheet is trimmed, if necessary, and cut longitudinally into four strips.
The strips are tied off with 5-0 silk suture and are then suspended in 10 mL water-jacketed glass tissue baths containing the Krebs solution maintained at 35° C. and aerated with 95% O2 /5% CO2. The suture connects each tissue to an isometric force-displacement transducer (Grass or Gould) coupled to a physiograph. Each preparation is suspended under a resting tension of 0.5 g and allowed to equilibrate for 36 minutes. During this period, the baths are emptied and filled every 12 minutes with 10 mL of warm Krebs buffer. At the end of this period, each muscle strip is conditioned by adding 10 μM carbachol to the baths. The drug remains in contact with each tissue for 1-2 minutes and then is removed by four rapid rinses of 10 mL of warm Krebs buffer. The preparations are allowed to recover for an additional 12 minutes before being used in experiments.
Carbachol is dissolved in saline to produce 2×10^-2 M stock concentrations. Serial dilutions (1:10) in saline or water are made from the stock solution. Appropriate volumes of these solutions are added cumulatively to the 10 mL tissue baths in order to obtain the desired bath concentrations.
PREPARATION OF TEST COMPOUNDS
Compounds that are soluble in water or saline are dissolved in these solvents to produce 2×10^-2 or 2×10^-3 M stock concentrations. Small amounts of IN HCl, NaOH, or 95% ethanol may be added for those agents that are not soluble in water or saline alone. Serial dilutions (1:10) in saline or water are made from the stock solution. Compounds that are insoluble in aqueous solvents are dissolved in dimethylsulfoxide (DMSO) to produce 4×10^-2 M stock solutions. Serial dilutions (1:10) in water are made from the stock solution. Other solvents may be used when appropriate and will be specifically described in the experimental procedure. Appropriate volumes are then added to the baths in order to obtain the desired bath concentrations.
Appropriate volumes of carbachol solutions are cumulatively added to the 10 mL tissue baths to increase the concentration of carbachol in the bath step-by-step without washing out after each single dose. With each concentration step, the tissue contracts isometrically. The next concentration is added only after the preceding contraction has reached a steady value. […]

[3] = molecular target: T2, muscarinic cholinergic receptors on intestinal (ileal-longitudinal) smooth muscle (Cavia porcellus, UniProt H0W1Z3); test: Antimuscarinic test: antagonism of carbachol contraction of isolated ileum (Muscarinic Antagonist Activity, Ileum); set-up: species or system guinea pig; conditions: carbachol agonist, 37° C.
T2 construct: The longitudinal muscle, with the myenteric plexus attached, is separated from the underlying circular muscle; from tissue; host or cells: guinea pig ileum, longitudinal smooth muscle with myenteric plexus

Male Guinea pigs = test: Primary in vivo bronchodilator assay for muscarinic antagonists (reversal of carbachol bronchoconstriction); set-up: species or system guinea pig; conditions: Cavia porcellus, iv, cumulative dose causing 50% reversal of carbachol bronchoconstriction
Procedure: PRIMARY IN VIVO BRONCHODILATOR ASSAY FOR MUSCARINIC ANTAGONISTS Male Guinea pigs were anesthetized by urethane. The trachea, carotid artery and jugular vein were cannulated. Animals were ventilated with room air at a constant rate and volume. Airway pressure was measured from a side port of the tracheal catheter, and blood pressure and heart rate were monitored as well. After a stable baseline period, an aerosol of carbachol was administered via an ultrasonic nebulizer. Once the bronchoconstrictor response plateaued, test compound was given in increasing i.v. doses to cause graded, cumulative reductions in airway pressure. If more than a 50% reversal of bronchoconstriction occurred, an ED50 value for bronchodilator potency was calculated using a probit analysis. The ED50 was defined as the cumulative i.v. dose that caused a 50% reversal of bronchoconstriction.

Solubility = format: physicochemical
mammalian heart tissue = conditions: Pohland, S. African Patent 68 05,631; cited from earlier work

T1 sequence (H0W1Z3 1-590): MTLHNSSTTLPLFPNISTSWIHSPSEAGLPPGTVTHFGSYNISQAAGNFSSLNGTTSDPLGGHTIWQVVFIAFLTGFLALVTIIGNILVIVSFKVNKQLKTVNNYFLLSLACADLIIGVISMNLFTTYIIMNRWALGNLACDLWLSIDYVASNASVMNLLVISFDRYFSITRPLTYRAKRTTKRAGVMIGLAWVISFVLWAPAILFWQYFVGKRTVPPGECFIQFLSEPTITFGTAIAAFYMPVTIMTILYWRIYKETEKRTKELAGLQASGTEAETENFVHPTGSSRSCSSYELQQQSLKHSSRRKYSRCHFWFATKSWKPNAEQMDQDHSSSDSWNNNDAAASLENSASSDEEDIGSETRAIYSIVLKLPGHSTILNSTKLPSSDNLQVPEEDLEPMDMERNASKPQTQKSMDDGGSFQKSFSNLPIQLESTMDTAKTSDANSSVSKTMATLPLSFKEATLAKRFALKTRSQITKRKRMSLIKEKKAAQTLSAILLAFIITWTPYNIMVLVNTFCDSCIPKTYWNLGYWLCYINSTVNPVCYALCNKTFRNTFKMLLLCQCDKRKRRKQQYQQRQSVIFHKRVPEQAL
T2 sequence (H0W1Z3 1-590): as above

Insol. (printed in the bronchodilator ED50 column) (Solubility; bronchodilator test, i.v.): Insol.
Kb [3]: 140 nM
Structure (SMILES): O=C1OC(Cn2cnc(-c3ccccc3)c2)CC1(c1ccccc1)c1ccccc1 (stereo not drawn) [5-[1-(4-Phenylimidazol)methyl]-4,5-dihydro-3,3-diphenyl-2(3H)furanone hydrochloride hydrate]

Kb [2]: 339 nM
Kb [3]: 253 nM
Structure (SMILES): CCOCc1n(C)cc[n+]1CC1CC(c2ccccc2)(c2ccccc2)C(=O)O1 (stereo not drawn) [5-[1-(Ethoxymethyl-3-methylimidazol)methyl]-4,5-dihydro-3,3-diphenyl-2(3H)furanone iodide]
ED50 (Male Guinea pigs): > 10 mg/kg

Kb [2]: 129 nM
Kb [3]: 21 nM
Structure (SMILES): CCc1nccn1C[C@H]1CC(c2ccccc2)(c2ccccc2)C(=O)O1 [(R)-(+)-5-[1-(2-Ethylimidazol)methyl]-4,5-dihydro-3,3-diphenyl-2(3H)furanone hydrochloride]

Kb [2]: 15 nM
Kb [3]: 10 nM
Structure (SMILES): CC(C)c1nccn1C[C@H]1CC(c2ccccc2)(c2ccccc2)C(=O)O1 [(R)-(+)-5-[1-(2-Isopropylimidazol)methyl]-4,5-dihydro-3,3-diphenyl-2(3H)furanone hydrochloride]

Kb [2]: 350 nM
Kb [3]: 169 nM
Structure (SMILES): CCc1nccn1C[C@@H]1CC(c2ccccc2)(c2ccccc2)C(=O)O1 [(S)-(-)-5-[1-(2-Ethylimidazol)methyl]-4,5-dihydro-3,3-diphenyl-2(3H)furanone hydrochloride]

Second part, the compound before the results:

Structure (SMILES): CN(C)CC1CC(c2ccccc2)(c2ccccc2)OC1=O (stereo not drawn) [3-[(dimethylamino)methyl]-4,5-dihydro-5,5-diphenyl-2(3H)furanone]
prevents contractions of isolated guinea pig ileum (spasmolytic) [1]: prevents contractions of isolated guinea pig ileum

Structure (SMILES): CCc1n(CC2CC(c3ccccc3)(c3ccccc3)C(=O)O2)cc[n+]1C (stereo not drawn) [5-[1-(2-Ethyl-3-methylimidazol)methyl]-4,5-dihydro-3,3-diphenyl-2(3H)furanone bromide]
Kb [2]: 5 nM
Kb [3]: 8 nM
ED50 (Male Guinea pigs): 0.13 mg/kg

Structure (SMILES): CCc1nccn1CC1CC(c2ccccc2)(c2ccccc2)C(=O)O1 (stereo not drawn) [5-[1-(2-Ethylimidazol)methyl]-4,5-dihydro-3,3-diphenyl-2(3H)furanone hydrochloride]
Kb [2]: 86 nM
Kb [3]: 68 nM
ED50 (Male Guinea pigs): 4 mg/kg

Structure (SMILES): CC(C)c1nccn1CC1=CC(c2ccccc2)(c2ccccc2)C(=O)O1 [5-[1-(2-Isopropylimidazol)methyl]-3,3-diphenyl-2(3H)furanone hydrochloride hydrate]
solubility (Solubility; in 0.5N HCl and 1 drop of Tween 80): > 1000 µg/mL
Kb [3]: 31 nM

Structure (SMILES): CC(C)c1nccn1CC1CC(c2ccccc2)(c2ccccc2)C(=O)O1 (stereo not drawn) [5-[1-(2-Isopropylimidazol)methyl]-4,5-dihydro-3,3-diphenyl-2(3H)furanone hydrochloride]
Kb [2]: 33 nM
Kb [3]: 30 nM
ED50 (Male Guinea pigs): 0.83 mg/kg

Structure (SMILES): Cc1nccn1CC1CC(c2ccccc2)(c2ccccc2)C(=O)O1 (stereo not drawn) [5-[1-(2-Methylimidazol)methyl]-4,5-dihydro-3,3-diphenyl-2(3H)furanone]
Kb [2]: 238 nM
Kb [3]: 107 nM
ED50 (Male Guinea pigs): 5.5 mg/kg

Structure (SMILES): CCCc1nccn1CC1CC(c2ccccc2)(c2ccccc2)C(=O)O1 (stereo not drawn) [5-[1-(2-n-Propylimidazol)methyl]-4,5-dihydro-3,3-diphenyl-2(3H)furanone hydrochloride]
Kb [2]: 70 nM
Kb [3]: 21 nM
ED50 (Male Guinea pigs): 1.3 mg/kg

Structure (SMILES): CCCc1n(CC2CC(c3ccccc3)(c3ccccc3)C(=O)O2)cc[n+]1C (stereo not drawn) [5-[1-(3-Methyl-2-n-propylimidazol-methyl]-4,5-dihydro-3,3-diphenyl-2(3H)furanone iodide]
Kb [2]: 11 nM
Kb [3]: 23 nM
ED50 (Male Guinea pigs): 0.11 mg/kg

Structure (SMILES): C[n+]1ccn(CC2CC(c3ccccc3)(c3ccccc3)C(=O)O2)c1 (stereo not drawn) [5-[1-(3-Methylimidazol)methyl]-4,5-dihydro-3,3-diphenyl-2(3H)furanone bromide hydrate]
Kb [2]: 151 nM
Kb [3]: 322 nM
ED50 (Male Guinea pigs): 1 mg/kg

Structure (SMILES): CCN(CC)CC1CC(c2ccccc2)(c2ccccc2)C(=O)O1 (stereo not drawn) [5-[(Diethylamino)-methyl]-4,5-dihydro-3,3-diphenyl-2(3H)furanone]
antiarrhythmic effectiveness in mammalian heart tissue (mammalian heart tissue): antiarrhythmic effectiveness in mammalian heart tissue
